According to patent US6838416B2, “Herbicidal 5-benzyloxymethyl-1,2-isoxazoline derivatives” (Korea Research Institute of Chemical Technology, priority 2000, dated 2005):

What was measured:
SCPJU (seed) = assay: Assay for herbicidal activity, paddy pots: SCPJU; format: in vivo, Scirpus juncoides ROXB; conditions: three weeks after application, 0 untreated control, 100 complete kill
In short: (§1)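 Sandy loam soil (1.2% organic matter, pH 6) was filled into 140 cm^2 pots kept under paddy conditions. The test compounds were then applied, and injury to rice and weed species was rated.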

MOOVA (seed) = assay: Assay for herbicidal activity, paddy pots: MOOVA; format: in vivo, Monochoria vaginalis PRESL; conditions: three weeks after application, 0 untreated control, 100 complete kill
In short: as §1

paddy weeds = assay: Greenhouse herbicidal assays, overall statements on paddy weeds; format: in vivo
Excerpt: To evaluate herbicidal activity against the paddy weeds in the paddy rice (ORYSA: Oryza sativa L.), the herbicidal activity of the compounds of the invention was compared to that of the compound No.109 (compound A) disclosed in U.S. Pat. No. 4,983,210 which has a similar structure with that of the present invention. The paddy weeds tested were ECHOR (Echinochloa crus-galli var. oryzicola), SCPJU (Scirpus juncoides ROXB), MOOVA (Monochoria vaginalis PRESL), CYPSE (Cyperus serotinus ROTTB), and SAGPY (Sagittaria pygmaea MTQ).
The vessels employed were plastic pots having an area of 140 cm^2 and filled with a sandy loam soil containing 1.2% organic matter (pH 6). Rice seedlings at the 3-leaf stage (ORYSA: Oryza sativa L.) and pregerminated seeds of rice were transplanted at the depth of 2 cm or seeded on the soil surface, respectively. Then the seeds of ECHOR, SCPJU, and MOOVA were seeded and the tubers of CYPSE and SAGPY also planted on the soil surface in the above plastic pot, wherein the pots were watered at the depth of 3 cm just after planting.
Two days after planting, a solution of the test compound and a non-ionic emulsifier (Tween-20) in 50% acetone, was diluted with water to a concentration of 0.016, 0.063, 0.25, 1.0, and 4.0 kg/ha, respectively and applied evenly to the test pots. […]

ORYSA (seed) = assay: Assay for herbicidal activity, paddy pots: phytotoxicity to seeded (pregerminated) rice; format: in vivo, Oryza sativa L.; conditions: three weeks after application, 0 untreated control, 100 complete kill
Excerpt: (§2) To evaluate herbicidal activity against the paddy weeds in the paddy rice (ORYSA: Oryza sativa L.), the herbicidal activity of the compounds of the invention was compared to that of the compound No.109 (compound A) disclosed in U.S. Pat. […] The paddy weeds tested were ECHOR (Echinochloa crus-galli var. oryzicola), SCPJU (Scirpus juncoides ROXB), MOOVA (Monochoria vaginalis […] (Cyperus serotinus ROTTB), and SAGPY (Sagittaria pygmaea MTQ). The vessels employed were plastic pots having an area of 140 cm^2 and filled with a sandy loam soil containing 1.2% organic matter (pH 6).

CYPSE (tuber) = assay: Assay for herbicidal activity, paddy pots: CYPSE; format: in vivo, Cyperus serotinus ROTTB; conditions: three weeks after application, 0 untreated control, 100 complete kill
In short: (§3)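 Compounds were tested in flooded paddy pots of 140 cm^2 filled with sandy loam soil containing 1.2% organic matter at pH 6. Crop phytotoxicity and weed control were scored in the same system.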

ORYSA (3-leaf stage) = assay: Assay for herbicidal activity, paddy pots: phytotoxicity to transplanted rice seedlings; format: in vivo, Oryza sativa L.; conditions: three weeks after application, 0 untreated control, 100 complete kill
Excerpt: as §2

SAGPY (tuber) = assay: Assay for herbicidal activity, paddy pots: SAGPY; format: in vivo, Sagittaria pygmaea MTQ; conditions: three weeks after application, 0 untreated control, 100 complete kill
In short: as §3

ECHOR (seed) = assay: Assay for herbicidal activity, paddy pots: ECHOR; format: in vivo, Echinochloa crus-galli var. oryzicola; conditions: three weeks after application, 0 untreated control, 100 complete kill
In short: as §3

Q: With `CC1(COCc2c(F)cccc2F)CC(c2cccs2)=NO1` (stereo not shown) [Compound A, reference compound] as the compound, how does the “SCPJU (seed) herbicidal activity, visual percentage grading” value (“SCPJU … visual percentage grading” below) (SCPJU (seed); 0.016 kg/ha) read?
A: 0%

Q: What about the “SCPJU … visual percentage grading” value (SCPJU (seed); 0.063 kg/ha) of the same compound?
A: 0%

Q: And the “SCPJU … visual percentage grading” value (SCPJU (seed); 0.250 kg/ha)?
A: 10%

Q: What about the “SCPJU … visual percentage grading” value (SCPJU (seed); 1.000 kg/ha) of the same compound?
A: 70%

Q: What about the “SCPJU … visual percentage grading” value (SCPJU (seed); 4.000 kg/ha) of the same compound?
A: 100%

Q: What about the “MOOVA (seed) herbicidal activity, visual percentage grading” value (shortened to “MOOVA … visual percentage grading”) (MOOVA (seed); 0.016 kg/ha) of the same compound?
A: 0%

Q: What about the “MOOVA … visual percentage grading” value (MOOVA (seed); 0.063 kg/ha) of the same compound?
A: 0%

Q: What about the “MOOVA … visual percentage grading” value (MOOVA (seed); 0.250 kg/ha) of the same compound?
A: 80%

Q: And the “MOOVA … visual percentage grading” value (MOOVA (seed); 1.000 kg/ha)?
A: 80%

Q: And the “MOOVA … visual percentage grading” value (MOOVA (seed); 4.000 kg/ha)?
A: 100%

Q: What about the “herbicidal activity, in words” value (paddy weeds; at the higher doses) of the same compound?
A: active

Q: And the “herbicidal activity, in words” value (paddy weeds; at the lower doses)?
A: inactive

Q: And the “ORYSA (seed) phytotoxicity, visual percentage grading” value (ORYSA (seed); 0.016 kg/ha)?
A: 0%

Q: What about the “ORYSA (seed) phytotoxicity, visual percentage grading” value (ORYSA (seed); 0.063 kg/ha) of the same compound?
A: 0%

Q: And the “ORYSA (seed) phytotoxicity, visual percentage grading” value (ORYSA (seed); 0.250 kg/ha)?
A: 20%

Q: And the “ORYSA (seed) phytotoxicity, visual percentage grading” value (ORYSA (seed); 1.000 kg/ha)?
A: 100%

Q: What about the “ORYSA (seed) phytotoxicity, visual percentage grading” value (ORYSA (seed); 4.000 kg/ha) of the same compound?
A: 100%

Q: And the “CYPSE (tuber) herbicidal activity, visual percentage grading” value (“CYPSE … visual percentage grading” for short) (CYPSE (tuber); 0.016 kg/ha)?
A: 0%

Q: What about the “CYPSE … visual percentage grading” value (CYPSE (tuber); 0.063 kg/ha) of the same compound?
A: 0%

Q: And the “CYPSE … visual percentage grading” value (CYPSE (tuber); 0.250 kg/ha)?
A: 10%

Q: And the “CYPSE … visual percentage grading” value (CYPSE (tuber); 1.000 kg/ha)?
A: 100%

Q: And the “CYPSE … visual percentage grading” value (CYPSE (tuber); 4.000 kg/ha)?
A: 100%

Q: What about the “ORYSA (3-leaf stage) phytotoxicity, visual percentage grading” value (ORYSA (3-leaf stage); 0.016 kg/ha) of the same compound?
A: 0%

Q: And the “ORYSA (3-leaf stage) phytotoxicity, visual percentage grading” value (ORYSA (3-leaf stage); 0.063 kg/ha)?
A: 0%

Q: And the “ORYSA (3-leaf stage) phytotoxicity, visual percentage grading” value (ORYSA (3-leaf stage); 0.250 kg/ha)?
A: 0%

Q: What about the “ORYSA (3-leaf stage) phytotoxicity, visual percentage grading” value (ORYSA (3-leaf stage); 1.000 kg/ha) of the same compound?
A: 0%

Q: And the “ORYSA (3-leaf stage) phytotoxicity, visual percentage grading” value (ORYSA (3-leaf stage); 4.000 kg/ha)?
A: 0%

Q: And the “SAGPY (tuber) herbicidal activity, visual percentage grading” value (“SAGPY … visual percentage grading” below) (SAGPY (tuber); 0.016 kg/ha)?
A: 0%

Q: And the “SAGPY … visual percentage grading” value (SAGPY (tuber); 0.063 kg/ha)?
A: 0%

Q: And the “SAGPY … visual percentage grading” value (SAGPY (tuber); 0.250 kg/ha)?
A: 100%

Q: What about the “SAGPY … visual percentage grading” value (SAGPY (tuber); 1.000 kg/ha) of the same compound?
A: 100%

Q: What about the “SAGPY … visual percentage grading” value (SAGPY (tuber); 4.000 kg/ha) of the same compound?
A: 100%

Q: And the “ECHOR (seed) herbicidal activity, visual percentage grading” value (shortened to “ECHOR … visual percentage grading”) (ECHOR (seed); 0.016 kg/ha)?
A: 0%

Q: What about the “ECHOR … visual percentage grading” value (ECHOR (seed); 0.063 kg/ha) of the same compound?
A: 0%

Q: And the “ECHOR … visual percentage grading” value (ECHOR (seed); 0.250 kg/ha)?
A: 20%

Q: And the “ECHOR … visual percentage grading” value (ECHOR (seed); 1.000 kg/ha)?
A: 100%

Q: And the “ECHOR … visual percentage grading” value (ECHOR (seed); 4.000 kg/ha)?
A: 100%
